From patent publication US20250145561A1, “4-SUBSTITUTED-PHENYL ACETAMIDES AND ARYLUREAS AS AGONISTS FOR THE ORPHAN RECEPTOR GPR88” (RESEARCH TRIANGLE INSTITUTE, priority 2022, published 2025)

Biological target: T1, GPR88 (Homo sapiens, UniProt Q9GZN0)
T1 construct: expressed in transfected cells
Experiment: Lance Ultra TR-FRET cAMP assay using stable PPLS-HA-GPR88 CHO cells
Format: cell-based
Conditions: for Emax: CHO; for EC50 / cAMP pEC50: stable PPLS-HA-GPR88 CHO cells; for EC50: value in parentheses beside pEC50; for cAMP pEC50: 300 nM forskolin, mean ± standard error of at least three independent experiments in duplicate
Procedure: The compounds of the present disclosure offer potent agonism to the orphan receptor GPR88. As such, the compounds of the present disclosure provide therapeutic potential for the treatment of striatal associated disorders such as Parkinson's disease, schizophrenia, and alcohol addiction. All compounds were evaluated for the GPR88 agonist activity in the inventors' previously established in vitro GPR88 Lance TR-FRET cAMP assay. See, supra, Jin et al., 2018, Rahman et al., 2020, and Rahman et al., 2021. As will be described, the TR-FRET signal was converted to fmol cAMP by interpolating from the standard cAMP curve. Fmol cAMP was plotted against the log of compound concentration and data were fit to a three-parameter logistic curve to generate maximum response (Emax) and EC50 values.
Lance™ Ultra cAMP assay using stable PPLS-HA-GPR88 CHO cells. All cAMP assays were performed using the inventors' previously published methods. […] ACS Chemical Neuroscience 2016, 7, 1418-1432, which is incorporated by reference herein with regard to such teaching. Stimulation buffer containing 1× Hank's Balanced Salt Solution (HBSS), 5 mM HEPES, 0.1% BSA stabilizer, and 0.5 mM final IBMX was prepared and titrated to pH 7.4 at room temperature. Serial dilutions of the test compounds (5 μL) and 300 nM forskolin (5 μL), both prepared at 4× the desired final concentration in 2% DMSO/stimulation buffer, were added to a 96-well white ½ area microplate (PerkinElmer). A cAMP standard curve was prepared at 4× the desired final concentration in stimulation buffer and 5 μL was added to the assay plate. Stable PPLS-HA-GPR88 CHO cells were lifted with versene and spun at 270 g for 10 minutes. The cell pellet was resuspended in stimulation buffer and 4,000 cells (10 μL) were added to each well except wells containing the cAMP standard curve. After incubating for 30 min at room temperature, Eu-cAMP tracer and uLIGHT-anti-cAMPworking solutions were added per the manufacturer's instructions. After incubation at room temperature for 1 hour, the TR-FRET signal (ex 337 nm) was read on a CLARIOstar multimode plate reader (BMG Biotech, Cary, NC).
Data Analysis. The TR-FRET signal (665 nm) was converted to fmol cAMP by interpolating from the standard cAMP curve. Fmol cAMP was plotted against the log of compound concentration and data were fit to a three-parameter logistic curve to generate EC50 values (Prism, version 6.0, GraphPad Software, Inc., San Diego, CA).

T1 sequence (Q9GZN0 whole entry): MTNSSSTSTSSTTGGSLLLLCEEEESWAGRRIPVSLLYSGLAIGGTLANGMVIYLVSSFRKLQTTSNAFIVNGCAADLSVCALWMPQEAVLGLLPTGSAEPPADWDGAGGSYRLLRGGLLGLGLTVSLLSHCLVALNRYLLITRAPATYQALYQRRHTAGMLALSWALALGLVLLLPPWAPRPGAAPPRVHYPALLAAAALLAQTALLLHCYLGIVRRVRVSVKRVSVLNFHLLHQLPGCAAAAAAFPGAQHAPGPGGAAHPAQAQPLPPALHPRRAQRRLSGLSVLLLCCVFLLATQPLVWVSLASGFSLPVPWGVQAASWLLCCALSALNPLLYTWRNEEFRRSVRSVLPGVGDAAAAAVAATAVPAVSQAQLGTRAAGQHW

SMILES	Emax [%]	EC50 [µM]	cAMP pEC50
CCCc1ccc(-c2ccc(N(C[C@@H](N)[C@@H](C)CC)C(=O)N[C@@H](C)c3ccccc3)cc2)cc1 [Compound 42, 3-[(2S,3S)-2-Amino-3-methylpentyl]-1-[(1 S)-1-phenylethyl]-3-{4′-propyl-[1,1′-biphenyl]-4-yl}urea]	106 ± 10	1.02	
CCCC(C)COc1ccc([C@@H](CO)C(=O)N[C@H](C)c2ccc(OC)cc2)cc1 (stereo partly drawn) [Compound 13, (2S)-3-Hydroxy-N-[(1 R)-1-(4-methoxyphenyl)ethyl]-2-{4-[(2-methylpentyl)oxy]phenyl}propenamide]	94 ± 3		
C[C@@H](NC(=O)[C@H](CO)c1ccc(-c2ccc(OC3CC3)cc2)cc1)c1ccccc1 [Compound 34, (2S)-2-{4′-cyclopropoxy-[1,1′-biphenyl]-4-yl}-3-hydroxy-N-[(1 R)-1-phenylethyl]propenamide]	86	0.245	
CCCc1ccc(-c2ccc(N(C[C@@H](N)[C@@H](C)CC)C(=O)N(C)c3ccccc3)cc2)cc1 [Compound 39, 3-[(2S,3S)-2-Amino-3-methylpentyl]-1-methyl-1-phenyl-3-{4′-propyl-[1,1′-biphenyl]-4-yi}urea]	97 ± 12	2.82	
CCCC(C)COc1ccc([C@@H](CO)C(=O)N[C@H](C)c2ccccn2)cc1 (stereo partly drawn) [Compound 21, (2S)-3-Hydroxy-2-{4-[(2-methylpentyl)oxy]phenyl}-N-[(1 R)-1-(pyridin-2-yl)ethyl]propenamide]	93 ± 4		
CO[C@H](C)[C@H](N)CN(C(=O)N[C@@H](C)c1ccccc1)c1ccc(-c2ccc(OC(C)C)cc2)cc1 [Compound 59, 3-[(2R,3R)-2-Amino-3-methoxybutyl]-1-[(1 S)-1-phenylethyl]-3-[4′-(propan-2-yloxy)-[1,1′-biphenyl]-4-yl]urea]	100 ± 4	0.407	
CCCc1ccc(-c2ccc(N(C[C@@H](N)[C@@H](C)CC)C(=O)N[C@H](C)c3ccccc3)cc2)cc1 [Compound 41, 3-[(2S,3S)-2-Amino-3-methylpentyl]-1-[(1 R)-1-phenylethyl]-3-{4′-propyl-[1,1′-biphenyl]-4-yl}urea]			Inactive
CCCC(C)COc1ccc([C@@H](CO)C(=O)N[C@@H]2C[C@H]2c2ccccc2)cc1 (some centres unmarked) [Compound 24]	83 ± 5		
CCCc1ccc(-c2ccc(N(C[C@@H]3CCCN3)C(=O)N[C@@H](C)c3ccccc3)cc2)cc1 [Compound 53, 1-[(1 S)-1-Phenylethyl]-3-{4′-propyl-[1,1′-biphenyl]-4-yl}-3-{[(2S)-pyrrolidin-2-yl]methyl}urea]	106 ± 3	1.74	
CCCC(C)COc1ccc([C@@H](CO)C(=O)N[C@@H](C)c2ccccc2)cc1 (stereo partly drawn) [Compound 5, (2S)-3-Hydroxy-2-{4-[(2-methylpentyl)oxy]phenyl}-N-[(1S)-1-phenylethyl]propenamide]			Inactive
CCCc1ccc(-c2ccc([C@@H](CO)C(=O)N[C@H](C)c3ccccc3)cc2)cc1 [Compound 25, (2S)-3-Hydroxy-N-[(1 R)-1-phenylethyl]-2-{4′-propyl-[1,1′-biphenyl]-4-yl}propenamide]	96 ± 3	0.138	
CCCc1ccc(-c2ccc(N(C[C@H](C)N)C(=O)N[C@@H](C)c3ccccc3)cc2)cc1 [Compound 52, 3-[(2S)-2-Aminopropyl]-1-[(1 S)-1-phenylethyl]-3-{4′-propyl-[1,1′-biphenyl]-4-yl}urea]	107 ± 3	1.29	
CCCC(C)COc1ccc([C@@H](CO)C(=O)NCCc2ccccc2)cc1 (stereo partly drawn) [Compound 16, (2S)-3-Hydroxy-2-{4-[(2-methylpentyl)oxy]phenyl}-N-(2-phenylethyl)propenamide]	97 ± 5		
CCCc1ccc(-c2ccc([C@@H](CC)C(=O)N[C@H](C)c3ccccc3)cc2)cc1 [Compound 27, (2R)—N-[(1 R)-1-Phenylethyl]-2-{4′-propyl-[1,1′-biphenyl]-4-yl}butanamide]	93 ± 9	0.501	
CCCC(C)COc1ccc([C@H](CO)C(=O)N[C@@H](C)c2ccccc2)cc1 (stereo partly drawn) [Compound 6, (2R)-3-Hydroxy-2-{4-[(2-methylpentyl)oxy]phenyl}-N-[(1 S)-1-phenylethyl]propenamide]			Inactive
CCc1ccc(-c2ccc(N(C[C@@H](N)[C@@H](C)OC)C(=O)N[C@@H](C)c3ccccc3)cc2)cc1 [Compound 56, 3-[(2R,3R)-2-Amino-3-methoxybutyl]-1-[(1 S)-1-phenylethyl]-3-{4′-ethyl-[1,1′-biphenyl]-4-yl}urea]	116 ± 9	0.331	
CC(C)C#Cc1ccc([C@@H](CO)C(=O)N[C@H](C)c2ccccc2)cc1 [Compound 37, (2S)-3-Hydroxy-2-[4-(3-methylbut-1-yn-1-yl)phenyl]-N-[(1 R)-1-phenylethyl]propenamide]	102 ± 2	0.479	
CCCc1ccc(-c2ccc(N(C[C@@H](N)[C@@H](C)CC)C(=O)N[C@@H](COC)c3ccccc3)cc2)cc1 [Compound 48, 3-[(2S,3S)-2-Amino-3-methylpentyl]-1-[(1 R)-2-methoxy-1-phenylethyl]-3-{4′-propyl-[1,1′-biphenyl]-4-yl}urea]	110 ± 5	1.55	
CCCc1ccc(-c2ccc(N(C[C@@H](N)[C@@H](C)OC)C(=O)N[C@@H](C)c3ccccc3)cc2)cc1 [Compound 54, 3-[(2R,3R)-2-Amino-3-methoxybutyl]-1-[(1 S)-1-phenylethyl]-3-{4′-propyl-[1,1′-biphenyl]-4-yl}urea]	106 ± 3	0.324	
CCCc1ccc(-c2ccc(C(C(=O)NC)C(=O)N[C@H](C)c3ccccc3)cc2)cc1 (mixture of isomers) [Compound 29, N-Methyl-N′-[(1 R)-1-phenylethyl]-2-{4′-propyl-[1,1′-biphenyl]-4-yl}propanediamide]	105 ± 2	1.38	
CCCC(C)COc1ccc([C@@H](CO)C(=O)N[C@H](C)c2cccs2)cc1 (stereo partly drawn) [Compound 23, (2S)-3-Hydroxy-2-{4-[(2-methylpentyl)oxy]phenyl}-N-[(1 R)-1-(thiophen-2-yl)ethyl]propenamide]	93 ± 5		
CCCc1ccc(-c2ccc([C@@H](Cn3ccnn3)C(=O)N[C@H](C)c3ccccc3)cc2)cc1 [Compound 31, (2S)—N-[(1 R)-1-Phenylethyl]-2-{4′-propyl-[1,1′-biphenyl]-4-yl}-3-(1H-1,2,3-triazol-1-yl)propenamide]	96	0.631	
C[C@@H](NC(=O)[C@H](CO)c1ccc(-c2ccc(OC3CCC3)cc2)cc1)c1ccccc1 [Compound 35, (2S)-2-{4′-Cyclobutoxy-[1,1′-biphenyl]-4-yl}-3-hydroxy-N-[(1 R)-1-phenylethyl]propenamide]	90 ± 10	0.224	
CCCCCCc1ccc(N(C[C@@H](N)[C@@H](C)CC)C(=O)N[C@@H](C)c2ccccc2)cc1 [Compound 43, 3-[(2S,3S)-2-Amino-3-methylpentyl]-3-(4-hexylphenyl)-1-[(1 S)-1-phenylethyl]urea]	108 ± 4	1.38	
CCCC(C)COc1ccc([C@@H](CO)C(=O)N[C@H](C)c2cccc(C)c2)cc1 (stereo partly drawn) [Compound 10, (2S)-3-Hydroxy-2-{4-[(2-methylpentyl)oxy]phenyl}-N-[(1 R)-1-(3-methylphenyl)ethyl]propenamide]	100 ± 3		
CCCC(C)COc1ccc([C@@H](CO)C(=O)N[C@H](C)c2ccccc2)cc1 (stereo partly drawn) [Compound 4, (2S)-3-Hydroxy-2-{4-[(2-methylpentyl)oxy]phenyl}-N-[(1 R)-1-phenylethyl]propenamide]	94 ± 13	0.2	
CC[C@@H](C)COc1ccc([C@@H](CO)C(=O)N[C@H](C)c2ccccc2)cc1 [Compound 8, (2S)-3-Hydroxy-2-{4-[(2R)-2-methylbutoxy]phenyl}-N-[(1 R)-1-phenylethyl]propenamide]	96 ± 13	3.09	
CCCc1ccc(-c2ccc([C@@H](Cn3cncn3)C(=O)N[C@H](C)c3ccccc3)cc2)cc1 [Compound 30]	96 ± 3	1.1	
CO[C@H](C)[C@H](N)CN(C(=O)N[C@@H](C)c1ccccc1)c1ccc(C#CCC(C)C)cc1 [Compound 60, 3-[(2R,3R)-2-amino-3-methoxybutyl]-3-[4-(4-methylpent-1-yn-1-yl)phenyl]-1-[(1 S)-1-phenylethyl]urea]	103 ± 4	0.363	
CCCc1ccc(-c2ccc(N(C[C@@H](N)[C@@H](C)CC)C(=O)Nc3ccccc3)cc2)cc1 [Compound 38, 3-[(2S,3S)-2-Amino-3-methylpentyl]-1-phenyl-3-{4′-propyl-[1,1′-biphenyl]-4-yl}urea]			Inactive
